Measurements as given in BindingDB's records for PubMed 11259544 (Florida State University, 2001).

Target: Cannabinoid receptor 1 (Taeniopygia guttata, UniProt P56971)
Sequence (P56971 whole entry): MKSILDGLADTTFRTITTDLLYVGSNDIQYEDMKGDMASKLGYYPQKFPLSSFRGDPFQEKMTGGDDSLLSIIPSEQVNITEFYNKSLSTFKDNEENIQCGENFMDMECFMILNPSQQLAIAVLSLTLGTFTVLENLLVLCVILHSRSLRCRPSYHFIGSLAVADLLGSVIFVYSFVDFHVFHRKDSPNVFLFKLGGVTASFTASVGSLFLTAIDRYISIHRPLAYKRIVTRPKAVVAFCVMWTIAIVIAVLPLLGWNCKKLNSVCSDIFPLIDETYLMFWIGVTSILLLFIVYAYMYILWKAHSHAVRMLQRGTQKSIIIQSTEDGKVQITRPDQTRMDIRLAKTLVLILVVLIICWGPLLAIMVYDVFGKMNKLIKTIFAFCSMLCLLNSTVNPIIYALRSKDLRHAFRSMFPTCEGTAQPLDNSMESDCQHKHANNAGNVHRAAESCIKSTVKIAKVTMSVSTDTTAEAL

Row | Structure (SMILES) | Ki [nM]
1 | CCCCC/C=C\C/C=C\C/C=C\C/C=C\CCCC(=O)NC(C)CO (configuration not stated) | 166
2 | CCCCC/C=C\C/C=C\C/C=C\C/C=C\CCCCCC(=O)NCCO | 2790
3 | CCCCCCC(C)(C)c1cc(O)c2c(c1)OC(C)(C)[C@@H]1CC=C(CO)CC21 (stereo partly drawn) [(R)-3-(1,1-Dimethyl-heptyl)-9-hydroxymethyl-6,6-dimethyl-6a,7,10,10a-tetrahydro-6H-benzo[c]chromen-1-ol] | 2.32
4 | CCCCCCC(C)(C)c1ccc([C@H]2C[C@@H](O)CC[C@@H]2CCCO)c(O)c1 [CP-56667 [(+)-AC],XV] | 5.92
5 | CC(=O)Oc1cc(OC(C)CCCc2ccccc2)cc2c1C1CC(O)CCC1C(C)N2 (configuration not stated) [NSC_107822] | 8.24
6 | Cc1c(C(=O)NN2CCCCC2)nn(-c2ccc(Cl)cc2Cl)c1-c1ccc(Cl)cc1 [SR141716] | 89.3
7 | Cc1c(C(=O)c2cccc3ccccc23)c2cccc3c2n1[C@H](CN1CCOCC1)CO3 [WIN55212-2] | 63.3
